Target: T1, Melanin-concentrating hormone receptor 1 (Homo sapiens, UniProt Q99705)
Experiment: Displacement of [125I]MCH from human MCHR1 expressed in CHO cell membranes

T1 sequence (Q99705 whole entry): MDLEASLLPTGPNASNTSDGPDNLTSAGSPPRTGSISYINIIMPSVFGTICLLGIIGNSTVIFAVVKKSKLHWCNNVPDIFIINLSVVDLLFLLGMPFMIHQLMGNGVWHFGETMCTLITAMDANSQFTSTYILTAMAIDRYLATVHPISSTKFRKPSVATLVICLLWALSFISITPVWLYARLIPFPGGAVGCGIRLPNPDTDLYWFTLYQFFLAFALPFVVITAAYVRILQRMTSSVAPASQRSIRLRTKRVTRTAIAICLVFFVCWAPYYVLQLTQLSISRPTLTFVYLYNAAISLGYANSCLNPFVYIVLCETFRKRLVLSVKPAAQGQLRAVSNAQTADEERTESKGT

Ki	Structure (SMILES)
1.7 µM	CCCCCCN(CS(=O)(=O)c1ccc(C)cc1)CS(=O)(=O)c1ccc(C)cc1
11.9 µM	CCN(CC)CCCn1c(-c2ccc(Br)cc2)cn2c3ccccc3nc12
20.9 µM	CC(C)N(CCCNC(=O)c1cc2sccc2n1C)Cc1ccccc1
7.5 µM	Cc1ccccc1SCN(CCc1ccccc1)CSc1ccccc1C
7.8 µM	Cc1ccccc1Nc1nc(N)nc(CN(C)Cc2cccc(Cl)c2)n1
7.5 µM	Cc1ccc(S(=O)(=O)CN(Cc2ccccc2)CS(=O)(=O)c2ccc(C)cc2)cc1
11.3 µM	CCN(CC)Cc1cc(N=C2NS(=O)(=O)c3ccccc32)ccc1OC(=O)c1ccc(OC)cc1
8.1 µM	COc1ccc(/C=C2/SC(=S)N(CCCC(=O)OCCN(C)C)C2=O)cc1

Target: T1, Melanin-concentrating hormone receptor 1
Experiment: Displacement of [125I]MCH from human MCHR1 expressed in CHO cell membranes at 5 ug/ml

Structure (SMILES)	inhibition
CCOc1ccc(Nc2nc(N)nc(CN(C)C3CCCCC3)n2)cc1	3%
O=C(Nc1ccccc1)c1c(-c2ccccc2)n(Cc2ccccc2)c2nc3ccccc3n12	15%
CCC(=O)Oc1ccc(NC2=NS(=O)(=O)c3ccccc32)cc1	31%
CCOc1ccc(NC2=NS(=O)(=O)c3cc([N+](=O)[O-])ccc32)cc1	4%
COc1ccccc1Nc1nc(N)nc(CN(C)C2CCCCC2)n1	0%
COc1ccc(-c2cn3c4ccccc4nc3n2CCCN2CCOCC2)cc1	0%
CCCn1c(-c2ccc(-c3ccccc3)cc2)c(C(C)=O)n2c3ccccc3nc12	18%
COc1cc(C(=O)Oc2ccc(N(Cc3cccs3)C3=NS(=O)(=O)c4ccccc43)cc2)cc(OC)c1OC	10%
COc1ccccc1CN(C(=O)c1cc2sccc2n1C)C1CC(C)(C)NC(C)(C)C1	3%
CCOc1ccccc1Nc1nc(N)nc(CN(C)C2CCCCC2)n1	16%
COc1ccc(Nc2nc(N)nc(CN(C)C3CCCCC3)n2)cc1	0%
O=C(c1cc2sccc2n1Cc1ccc(F)cc1)N(CCCN1CCOCC1)Cc1cccnc1	44%
COc1cc(CN(CCCn2ccnc2)C(=O)c2cc3sccc3n2C)cc(OC)c1	0%
Cc1ccc(S(=O)(=O)CN(CS(=O)(=O)c2ccc(C)cc2)c2ccc(Br)cc2F)cc1	10%

From ChEMBL document CHEMBL1140742, “Discovery of novel chemotypes to a G-protein-coupled receptor through ligand-steered homology modeling and structure-based virtual screening” (J Med Chem, 2008)
